From patent US20260285853A1, “COMPOUNDS AND METHODS FOR MODULATING SPLICING” (REMIX THERAPEUTICS INC., priority 2023, published 2026)
Where a name gives a salt, the structure may show the parent alone.

Legend:
Test in all cases: Gene panel canonical junction qPCR assay, decrease in CJ mRNA, Table 3
Type in all cases: cell-based
SMN2 mRNA = system: SMN2 mRNA
Outline: (§1)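 Eleven-point dose responses from 10 uM final, 24 h, DMSO ≤0.25%, in A673 or K562 cells. Relative quantification by 2^(−ΔΔCt) against housekeeper and vehicle was converted to percent response over fixed ΔCt windows and fitted to yield IC50.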

HTT mRNA = system: HTT mRNA
Outline: as §1

MYB mRNA = system: MYB mRNA
Outline: as §1

[1] = decrease in canonical junction (CJ) mRNA, gene panel qPCR, Table 3
[2] = decrease in CJ mRNA levels, canonical junction qPCR, gene panel

Row | SMILES | IC50 (SMN2 mRNA; [1]) [nM] | IC50 (HTT mRNA; [1]) [nM] | IC50 (MYB mRNA; [1]) [nM] | IC50 (SMN2 mRNA; [2]) [nM] | IC50 (HTT mRNA; [2]) [nM] | IC50 (MYB mRNA; [2]) [nM]
1 | CCN[C@@H]1CCN(c2cc(O)c(C(=O)Nc3cc(F)c4nc(C)cn4c3)c3nn(C)cc23)C1 [Compound 144, 4-[3-(ethylamino)pyrrolidin-1-yl]-N-(8-fluoro-2-methyl-imidazo[1,2-a]pyridin-6-yl)-6-hydroxy-2-methyl-indazole-7-carboxamide] | < 100 | > 10000 | < 100 | – | – | –
2 | CN[C@H]1CCN(c2ccc(C(=O)Nc3cc(F)c4nc(C)cn4c3)c3nnn(C)c23)C1 [Compound 166, (S)-N-(8-fluoro-2-methylimidazo-[1,2-a]pyridin-6-yl)-1-methyl-7-(3-(methylamino)pyrrolidin-1-yl)-1H-benzo[d]-[1,2,3]triazole-4-carboxamide] | < 100 | > 10000 | 100 to 1000 | – | – | –
3 | CN[C@H]1CCN(c2ccc(C(=O)Nc3cc(F)c4nc(C)cn4c3)c3nn(C)cc23)[C@H]1C (single isomer, unassigned) [Compound 152] | 100 to 1000 | > 10000 | 1000 to 10000 | – | – | –
4 | CCNC1CCN(c2ccc(C(=O)Nc3cc4cn(C)nc4cc3O)c3[nH]ccc23)CC1 [Compound 190, 4-[4-(ethylamino)-1-piperidyl]-N-(6-hydroxy-2-methyl-indazol-5-yl)-1H-indole-7-carboxamide] | > 10000 | > 10000 | > 10000 | – | – | –
5 | CCNC1CCN(c2ccc(C(=O)Nc3cc(F)c4nc(C(C)C)cn4c3)c3nn(C)cc23)CC1 [Compound 177, 4-[4-(ethylamino)-1-piperidyl]-N-(8-fluoro-2-isopropyl-imidazo[1,2-a]pyridin-6-yl)-2-methyl-indazole-7-carboxamide] | > 10000 | 1000 to 10000 | > 10000 | – | – | –
6 | Cc1cn2cc(NC(=O)c3ccc(N4CCC(NC5CC5)CC4)n4cc(C)nc34)cc(F)c2n1 [Compound 210, 5-(4-(cyclopropylamino)piperidin-1-yl)-N-(8-fluoro-2-methylimidazo[1,2-a]pyridin-6-yl)-2-methylimidazo[1,2-a]-pyridine-8-carboxamide] | < 100 | 100 to 1000 | < 100 | – | – | –
7 | Cc1cn2cc(NC(=O)c3ccc(N4CCC(NC5CC5(C)C)CC4)c4cn(C)nc34)cc(F)c2n1 (stereo not drawn) [Compound 205, 4-(4-((2,2-dimethylcyclopropyl)amino)piperidin-1-yl)-N-(8-fluoro-2-methylimidazo[1,2-a]pyridin-6-yl)-2-methyl-2H-indazole-7-carboxamide] | < 100 | 1000 to 10000 | < 100 | – | – | –
8 | CCNC1CCN(c2ccc(C(=O)Nc3cn4cc(C)nc4c(OC)n3)c3nn(C)cc23)CC1 [Compound 206, 4-[4-(ethylamino)-1-piperidyl]-N-(8-methoxy-2-methyl-imidazo[1,2-a]pyrazin-6-yl)-2-methyl-indazole-7-carboxamide] | < 100 | 100 to 1000 | < 100 | – | – | –
9 | CN[C@H]1CCN(c2ccc(C(=O)Nc3cc(F)c4nc(C)cn4c3)c3nn(C)nc23)C1 [Compound 163, (S)-N-(8-fluoro-2-methylimidazo-[1,2-a]pyridin-6-yl)-2-methyl-7-(3-(methylamino)pyrrolidin-1-yl)-2H-benzo[d]-[1,2,3]triazole-4-carboxamide] | < 100 | 100 to 1000 | 100 to 1000 | – | – | –
10 | CCNC1CCN(c2cc(F)c(C(=O)Nc3cc(F)c4nc(C)cn4c3)c3ccoc23)CC1 [Compound 195, 7-[4-(ethylamino)-1-piperidyl]-5-fluoro-N-(8-fluoro-2-methylimidazo[1,2-a]pyridin-6-yl)-benzofuran-4-carboxamide] | 1000 to 10000 | > 10000 | > 10000 | – | – | –
11 | CCNC1CCN(c2ccc(C(=O)Nc3cc(F)c4nc(C)oc4c3)c3nn(C)cc23)CC1 [Compound 200, 4-(4-(ethylamino)piperidin-1-yl)-N-(4-fluoro-2-methylbenzo[d]-oxazol-6-yl)-2-methyl-2H-indazole-7-carboxamide] | < 100 | 100 to 1000 | 100 to 1000 | – | – | –
12 | CCNC1CCN(c2ccc(C(=O)Nc3cc(F)c4nn(C)cc4c3)c3nn(C)cc23)CC1 [Compound 182, 4-(4-(ethylamino)piperidin-1-yl)-N-(7-fluoro-2-methyl-2H-indazol-5-yl)-2-methyl-2H-indazole-7-carboxamide] | < 100 | 1000 to 10000 | < 100 | – | – | –

Second part, the compound after the results:

Row | IC50 (SMN2 mRNA; [1]) [nM] | IC50 (HTT mRNA; [1]) [nM] | IC50 (MYB mRNA; [1]) [nM] | IC50 (SMN2 mRNA; [2]) [nM] | IC50 (HTT mRNA; [2]) [nM] | IC50 (MYB mRNA; [2]) [nM] | SMILES
13 | < 100 | 1000 to 10000 | 100 to 1000 | – | – | – | CO[C@H]1C[C@H](N[C@H]2CCN(c3ccc(C(=O)Nc4cc(F)c5nc(C)cn5c4)c4nn(C)cc34)C2)C1 [Compound 275, N-(8-fluoro-2-methylimidazo[1,2-a]pyridin-6-yl)-4-((S)-3-(((1r,3S)-3-methoxycyclobutyl)amino)pyrrolidin-1-yl)-2-methyl-2H-indazole-7-carboxamide]
14 | – | – | – | < 100 | 100 to 1000 | < 100 | COc1c(NC(=O)c2c(F)cc(N3CCNCC3)c3cn[nH]c23)cn2cc(C)nc2c1F [Compound 607, 6-fluoro-N-(8-fluoro-7-methoxy-2-methyl-imidazo[1,2-a]pyridin-6-yl)-4-piperazin-1-yl-1H-indazole-7-carboxamide]
15 | < 100 | 100 to 1000 | < 100 | – | – | – | CCN[C@@H]1CCN(c2cc(O)c(C(=O)Nc3cc(F)c4nn(C)cc4c3)c3nn(C)cc23)C1 [Compound 294, 4-[(3R)-3-(ethylamino)-pyrrolidin-1-yl]-N-(7-fluoro-2-methyl-indazol-5-yl)-6-hydroxy-2-methyl-indazole-7-carboxamide]
16 | < 100 | 1000 to 10000 | 100 to 1000 | – | – | – | Cc1cn2cc(NC(=O)c3ccc(N4CCNC(C(F)F)C4)c4cn(C)nc34)cc(F)c2n1 (stereo not drawn) [Compound 249, 4-[3-(difluoromethyl)piperazin-1-yl]-N-(8-fluoro-2-methylimidazo[1,2-a]pyridin-6-yl)-2-methyl-indazole-7-carboxamide]
17 | 1000 to 10000 | > 10000 | > 10000 | – | – | – | Cc1cn2cc(NC(=O)c3ccc(N4C[C@@H](C)N[C@@H](C)C4)c4[nH]nnc34)cc(F)c2n1 [Compound 243, 7-((3S,5R)-3,5-dimethylpiperazin-1-yl)-N-(8-fluoro-2-methylimidazo[1,2-a]pyridin-6-yl)-1H-benzo[d][1,2,3]-triazole-4-carboxamide hydrochloride]
18 | > 10000 | > 10000 | > 10000 | – | – | – | Cc1cn2cc(NC(=O)c3ccc(N4C[C@@H](C)N[C@@H](C)C4)c4nnn(C)c34)cc(F)c2n1 [Compound 261, 7-[(3R,5S)-3,5-dimethylpiperazin-1-yl]-N-(8-fluoro-2-methyl-imidazo[1,2-a]pyridin-6-yl)-3-methyl-benzotriazole-4-carboxamide]
19 | < 100 | > 10000 | < 100 | – | – | – | COCCN[C@@H]1CCN(c2cc(O)c(C(=O)Nc3cc(F)c4nc(C)cn4c3)c3nn(C)cc23)C1 [Compound 285, N-(8-fluoro-2-methyl-imidazo[1,2-a]pyridin-6-yl)-6-hydroxy-4-[(3R)-3-(2-methoxyethylamino)pyrrolidin-1-yl]-2-methyl-indazole-7-carboxamide]
20 | 1000 to 10000 | > 10000 | > 10000 | – | – | – | COc1cc(N2CCNCC2)c2cn(C)nc2c1C(=O)Nc1cc(F)c2nc(C)cn2c1 [Compound 250, N-(8-fluoro-2-methyl-imidazo[1,2-a]pyridin-6-yl)-6-methoxy-2-methyl-4-piperazin-1-yl-indazole-7-carboxamide]
